US10363239B2, “Method for inhibiting growth of cancer cells” (Pain Therapeutics, Inc., priority 2013, dated 2019)

Test system: pS2152FLNA, FLNA-associated PTEN and PP2A in melanoma cells
Assay: pS2152FLNA and FLNA-associated PTEN and PP2A in anti-FLNA immunoprecipitate (Western blotting)
Assay type: cell-based, human
Conditions: 0.1-5 nM; 4 days
Protocol: The effect of Compound C0105 on the levels of pS^2152FLNA and FLNA-associated phosphatases, PTEN and PP2A subclasses was determined in melanoma cells. Cells were treated with vehicle and 0.1-5 nM Compound C0105 for 4 days. Cells were washed, solubilized and the resultant cell lysate was immunoprecipitated with anti-FLNA. The levels of pS^2152FLNA and FLNA-associated phosphatases, PTEN and PP2A subclasses in the anti-FLNA immunoprecipitate were determined by Western blotting. The density of protein bands was quantified by densitometric scanning. […] N=4. **p<0.05, *p<0.01 compared to vehicle (open bars). […]
The cell lysates were diluted 5-fold with immunoprecipitation buffer and immunoprecipitated with anti-FLNA, -Akt, -mTOR and -ERK2 as described previously [Talbot et al., J Clin Inv 122(4):1-23 (2012); Wang et al., J Neurosci 32(29):9773-9784 (2012)]. The levels of FLNA linkages, activated phosphorylated Akt (pS^473 and pT^308), phosphorylated mTOR (pS^2448) and phosphorylated ERK2 (pY/pT) were determined in anti-FLNA, -Akt, -mTOR and -ERK2 immunoprecipitates by Western blotting with appropriate antibodies directed against PTEN, PP2A, K-RAS, ras-GAP (FLNA linkages), pS^473Akt, pT^308Akt, pS^2448mTOR and pY/pT ERK2 (activation of Akt, mTOR and ERK2).

Q: What does the source list for CN1CCC2(CC1)NCC(=O)N2Cc1ccccc1 [Compound C0105]?
A: FLNA-associated PTEN and PP2A levels: increases FLNA-associated PTEN and PP2A levels; pS2152FLNA level: reduces pS^2152FLNA
